Measured values published in ChEMBL document CHEMBL4811278, “Discovery of novel modulators for the PPARα (peroxisome proliferator activated receptor α): Potential therapies for nonalcoholic fatty liver disease” (Bioorg Med Chem, 2021).
Activity calls are given as the source filed them.

Tests used:
[1] = target: T1, Peroxisome proliferator-activated receptor gamma (Homo sapiens, UniProt P37231); test: Agonist activity at Gal4-fused human PPARgamma expressed in monkey CV1 cells assessed as receptor transactivation incubated for 45 hrs by luciferase reporter gene assay; type: cell-based, CV-1
T1 sequence (P37231 whole entry): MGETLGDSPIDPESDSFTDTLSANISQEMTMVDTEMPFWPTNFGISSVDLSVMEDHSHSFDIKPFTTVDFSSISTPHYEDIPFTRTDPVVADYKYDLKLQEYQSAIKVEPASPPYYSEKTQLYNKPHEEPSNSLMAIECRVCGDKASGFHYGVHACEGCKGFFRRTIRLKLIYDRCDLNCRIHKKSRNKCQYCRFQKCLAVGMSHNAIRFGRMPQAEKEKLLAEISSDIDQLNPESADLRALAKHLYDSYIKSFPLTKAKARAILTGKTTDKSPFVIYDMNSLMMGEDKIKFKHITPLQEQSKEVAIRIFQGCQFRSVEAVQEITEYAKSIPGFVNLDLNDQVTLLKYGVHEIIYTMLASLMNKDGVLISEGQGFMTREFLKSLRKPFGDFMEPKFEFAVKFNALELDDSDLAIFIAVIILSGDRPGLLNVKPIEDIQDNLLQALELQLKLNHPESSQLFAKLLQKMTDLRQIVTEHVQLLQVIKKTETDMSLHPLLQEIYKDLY

Mus musculus [2] = test: Hypolipidemic activity in high fat diet-induced nonalcoholic steatohepatitis C57BL/6J mouse model assessed as reduction in hepatic […] content at 3 mg/kg, po administered once daily via gavage for 7 days; type: functional, organism-based; settings: time 7.0 day
Mus musculus [3] = test: Hypolipidemic activity in wild type high fat diet-induced nonalcoholic steatohepatitis C57BL/6J mouse model assessed as reduction in plasma triglyceride levels at 3 mg/kg, po measured after 72 hrs; type: functional, organism-based
Mus musculus [4] = test: Upregulation of PPARalpha expression in liver of high fat diet-induced nonalcoholic steatohepatitis C57BL/6J mouse model at 3 mg/kg, po and measured after 24 hrs by quantitative real time PCR analysis; type: functional, organism-based
[5] = Toxicity in high fat diet-induced nonalcoholic steatohepatitis C57BL/6J mouse model assessed as increase in plasma glucose level at 3 mg/kg, po administered once daily for 7 days and measured after 4 days; type: organism-based; settings: in vivo, 96 h, time 4 day
Mus musculus [6] = test: Hypolipidemic activity in high fat diet-induced nonalcoholic steatohepatitis C57BL/6J mouse model assessed as reduction in hepatocellular vacuolation at 3 mg/kg, po administered once daily for 1 week by Oil Red O staining based assay; type: functional, organism-based; settings: time 1.0 weeks
[7] = target: T2, Peroxisome proliferator-activated receptor alpha (Mus musculus) (UniProt P23204); test: In vivo agonist activity at PPARalpha in high fat diet-induced nonalcoholic steatohepatitis C57BL/6J mouse model assessed as increase in mCPT1A gene expression in liver at 3 mg/kg, po administered once daily for 7 days and measured at >3 days by quantitative real time PCR analysis; type: functional, organism-based; settings: time day >3
T2 sequence (whole entry): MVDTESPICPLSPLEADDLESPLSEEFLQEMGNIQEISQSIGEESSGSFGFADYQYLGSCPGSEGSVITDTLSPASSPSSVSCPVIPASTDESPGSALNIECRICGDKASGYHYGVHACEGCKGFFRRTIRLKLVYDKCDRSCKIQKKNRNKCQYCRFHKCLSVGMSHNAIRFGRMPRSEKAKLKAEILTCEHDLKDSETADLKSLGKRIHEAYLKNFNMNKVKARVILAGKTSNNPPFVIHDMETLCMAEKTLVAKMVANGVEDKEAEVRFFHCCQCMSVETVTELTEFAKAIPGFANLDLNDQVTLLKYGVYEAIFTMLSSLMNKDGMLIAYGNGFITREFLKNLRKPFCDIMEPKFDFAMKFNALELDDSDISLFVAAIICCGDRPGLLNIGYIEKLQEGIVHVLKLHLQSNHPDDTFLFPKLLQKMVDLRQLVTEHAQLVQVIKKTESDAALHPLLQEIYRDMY

Mus musculus [8] = test: Hypolipidemic activity in high fat diet-induced nonalcoholic steatohepatitis C57BL/6J mouse model assessed as reduction in plasma triglyceride level at 3 mg/kg, po administered once daily via gavage for 7 days; type: functional; settings: 168 h, time 7 day
[9] = target: T3, Peroxisome proliferator-activated receptor alpha (Homo sapiens, UniProt Q07869); test: Agonist activity at Gal4-fused human PPARalpha co-expressed with RXRalpha in monkey CV1 cells assessed as PPRE transcriptional activation incubated for 45 hrs by luciferase reporter gene assay; type: cell-based, CV-1
T3 sequence (Q07869 whole entry): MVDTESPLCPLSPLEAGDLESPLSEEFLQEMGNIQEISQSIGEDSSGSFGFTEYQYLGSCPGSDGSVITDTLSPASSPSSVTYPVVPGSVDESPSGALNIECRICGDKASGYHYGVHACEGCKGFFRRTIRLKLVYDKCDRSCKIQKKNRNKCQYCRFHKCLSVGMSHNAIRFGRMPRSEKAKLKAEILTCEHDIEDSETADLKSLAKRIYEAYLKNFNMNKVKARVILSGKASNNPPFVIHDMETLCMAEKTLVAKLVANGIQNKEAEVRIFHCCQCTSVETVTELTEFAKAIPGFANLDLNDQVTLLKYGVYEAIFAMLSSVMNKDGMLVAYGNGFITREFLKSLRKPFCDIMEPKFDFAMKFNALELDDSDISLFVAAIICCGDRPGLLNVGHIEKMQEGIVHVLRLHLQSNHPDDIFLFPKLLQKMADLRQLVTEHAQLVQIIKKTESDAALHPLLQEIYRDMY

[10] = target: T2, Peroxisome proliferator-activated receptor alpha (Mus musculus); test: In vivo agonist activity at PPARalpha in high fat diet-induced nonalcoholic steatohepatitis C57BL/6J mouse model assessed as increase in mACADM gene expression in liver at 3 mg/kg, po administered once daily for 7 days by quantitative real time PCR analysis; type: functional, organism-based; settings: time 7.0 day
[11] = target: T2, Peroxisome proliferator-activated receptor alpha (Mus musculus); test: In vivo agonist activity at PPARalpha in high fat diet-induced nonalcoholic steatohepatitis C57BL/6J mouse model assessed as trans-repression of ApoC3 mRNA expression in liver administered at 3 mg/kg, po and measured after 24 hrs by quantitative real time PCR analysis; type: functional, organism-based
[12] = target: T2, Peroxisome proliferator-activated receptor alpha (Mus musculus); test: In vivo agonist activity at PPARalpha in high fat diet-induced nonalcoholic steatohepatitis C57BL/6J mouse model assessed as increase in LPL mRNA expression in liver administered at 3 mg/kg, po and measured after 24 hrs by quantitative real time PCR analysis; type: functional, organism-based
[13] = target: T2, Peroxisome proliferator-activated receptor alpha (Mus musculus); test: In vivo agonist activity at PPARalpha in high fat diet-induced nonalcoholic steatohepatitis C57BL/6J mouse model assessed as increase in ACOX1 mRNA expression in liver administered at 3 mg/kg, po and measured after 24 hrs by quantitative real time PCR analysis; type: functional, organism-based
Mus musculus [14] = test: Hypolipidemic activity in high fat diet-induced nonalcoholic steatohepatitis C57BL/6J mouse model assessed as reduction in plasma triglyceride level at 3 mg/kg, po administered via gavage and measured after 24 hrs; type: functional
[15] = target: T2, Peroxisome proliferator-activated receptor alpha (Mus musculus); test: In vivo agonist activity at PPARalpha in high fat diet-induced nonalcoholic steatohepatitis C57BL/6J mouse model assessed as transrepression of ApoC3 mRNA expression in liver administered at 3 mg/kg, po administered once daily for 7 days by quantitative real time PCR analysis; type: functional, organism-based; settings: time 7.0 day
[16] = target: T2, Peroxisome proliferator-activated receptor alpha (Mus musculus); test: In vivo agonist activity at PPARalpha in high fat diet-induced nonalcoholic steatohepatitis C57BL/6J mouse model assessed as increase in Cyp4a3 mRNA expression in liver administered at 3 mg/kg, po administered once daily for 7 days by quantitative real time PCR analysis; type: functional, organism-based; settings: time 7.0 day

COc1ccc(Cn2c(CCCc3ccc(OC(C)(C)C(=O)O)cc3)nn(Cc3ccc(C)cc3)c2=O)cc1
Non-Toxic: Activity [5]
0.87 nM: EC50 [9]
active: Activity (Mus musculus [2]) | Activity (Mus musculus [3]) | Activity (Mus musculus [4]) | Activity (Mus musculus [6]) | Activity [7] | Activity [10] | Activity [11] | Activity [12] | Activity [13] | Activity [15] | Activity [16]
≥ 50%: inhibition in vivo at 3 mg/kg (Mus musculus [8]) | inhibition in vivo at 3 mg/kg (Mus musculus [14])
> 10000 nM: EC50 [1]
